Type in all cases: cell-based
Test [1] deals with T1, monocarboxylate transporter (MCT1) (Homo sapiens, UniProt P53985).
T1 sequence (P53985 1-500): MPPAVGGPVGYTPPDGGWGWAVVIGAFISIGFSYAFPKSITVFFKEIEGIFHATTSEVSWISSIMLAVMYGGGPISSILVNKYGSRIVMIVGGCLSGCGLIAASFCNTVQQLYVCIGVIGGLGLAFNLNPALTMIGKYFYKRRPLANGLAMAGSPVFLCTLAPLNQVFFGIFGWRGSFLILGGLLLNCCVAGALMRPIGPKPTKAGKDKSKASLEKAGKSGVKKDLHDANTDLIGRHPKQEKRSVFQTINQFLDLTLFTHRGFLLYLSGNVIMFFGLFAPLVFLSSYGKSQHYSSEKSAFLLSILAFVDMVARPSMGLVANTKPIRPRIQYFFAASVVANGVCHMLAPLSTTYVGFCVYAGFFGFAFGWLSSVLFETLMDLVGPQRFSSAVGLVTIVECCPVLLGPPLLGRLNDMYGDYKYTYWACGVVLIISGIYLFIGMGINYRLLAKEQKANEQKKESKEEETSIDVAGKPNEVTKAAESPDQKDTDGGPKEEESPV
The test is described as follows: Inhibition of MCT1 uptake of known substrate 2-thiophene glyoxylate. Also on record: expressed in transfected cells. Here is the method: FIG. 4(c) is a line graph showing concentration-inhibition curves for the inhibition of uptake of the known substrate 2-thiophene glyoxylate (500 μM) for MCT1. DMSO (0.5%) was the solvent control (SC) and the known inhibitor phloretin (500 μM) was the positive control (PC).
FIG. 4(d) is a line graph showing concentration-inhibition curves for the inhibition of uptake of the known substrate 2-thiophene glyoxylate (500 μM) for MCT1. DMSO (0.5%) was the solvent control (SC) and the known inhibitor phloretin (500 μM) was the positive control (PC).
The known probe substrates used as positive controls are 3 μM chlorothiazide for OAT1, 2 μM estrone-3-sulfate for OAT3, 10 μM gabapentin for LAT1, 50 μM Gly-Sar for PepT1, 500 μM thiophene-2-glyoxylic acid for MCT1.
The IC50 value for the test item is determined by fitting the Hill equation in the following form:
where A % is the percent activity remaining (the mean cellular uptake observed in the solvent control sample set to 100% and the mean cellular uptake observed in the presence of the positive control inhibitor set to 0%), Top and Bottom are the upper and lower plateau of A %. [I] is the inhibitor concentration and IC50 is the inhibitor concentration where the remaining activity is at the midpoint between the Top and Bottom.

Another test deals with T2, OAT1 (SLC22A6) (Homo sapiens, UniProt Q4U2R8).
T2 construct: host or cells: HEK-293
T2 sequence (Q4U2R8 1-563): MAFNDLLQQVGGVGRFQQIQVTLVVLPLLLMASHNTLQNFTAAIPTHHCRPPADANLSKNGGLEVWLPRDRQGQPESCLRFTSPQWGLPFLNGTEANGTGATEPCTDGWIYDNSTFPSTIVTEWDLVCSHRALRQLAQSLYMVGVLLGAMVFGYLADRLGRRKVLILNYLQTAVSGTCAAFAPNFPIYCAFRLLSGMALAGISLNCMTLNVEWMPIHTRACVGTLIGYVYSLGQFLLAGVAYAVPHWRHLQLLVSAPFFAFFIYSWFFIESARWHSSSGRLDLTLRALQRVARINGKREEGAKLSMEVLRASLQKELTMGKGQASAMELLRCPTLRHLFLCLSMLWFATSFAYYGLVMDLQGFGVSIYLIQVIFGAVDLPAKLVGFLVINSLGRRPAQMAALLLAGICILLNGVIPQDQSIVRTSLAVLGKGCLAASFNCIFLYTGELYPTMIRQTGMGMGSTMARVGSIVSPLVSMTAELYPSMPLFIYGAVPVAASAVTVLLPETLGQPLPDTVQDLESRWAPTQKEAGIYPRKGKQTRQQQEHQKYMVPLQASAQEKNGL
In words: OAT1 transporter-mediated cellular uptake (substrate test). Conditions: uptake 5 min, 37° C. Here is the method:
(§1) DMSO (0.5%) was the solvent control (SC) and the known inhibitor diclofenac (100 μM) was the positive control (PC). Data were fit to either the Michalis-Menten equation for uptake or the Hill equation for inhibition using the solvent control to define the top and the positive control inhibitor to define the bottom. Symbols represent the mean±SEM, n=3.
(§2) Human OAT1 (SLC22A6) and OAT3 (SLC22A8) overexpressing HEK-293 cells and control cells without transfected transporter (Corning® TransportoCells™) are plated to 24-well plates and cellular uptake of 10 to 100 μg/mL of a Compound of the Disclosure is measured in the absence and presence of transporter inhibitors. Uptake of a Compound of the Disclosure into control cells is measured only without chemical inhibitors. […] Cells are grown in DMEM (Gibco 4196, high glucose, without sodium pyruvate) supplemented with MEM non-essential amino acids and 10% fetal bovine serum. Cells are re-fed with fresh medium after attachment (4-6 hours post-seeding). Cell are plated at a density of 4×10^5/well in 24-well plates coated with poly-D-lysine. Transporter assays are conducted in 400 μL of HBSS supplemented with 10 mM Hepes, pH 7.4 […]
(§3) Enzyme kinetic data for uptake and metabolism of a Compound of the Disclosure is analysed by fitting the Michaelis-Menten equation to the data. […]

Another test has as its target T3, OAT3 (SLC22A8) (Homo sapiens, UniProt Q8TCC7).
T3 construct: host or cells: HEK-293
T3 sequence (Q8TCC7 1-542): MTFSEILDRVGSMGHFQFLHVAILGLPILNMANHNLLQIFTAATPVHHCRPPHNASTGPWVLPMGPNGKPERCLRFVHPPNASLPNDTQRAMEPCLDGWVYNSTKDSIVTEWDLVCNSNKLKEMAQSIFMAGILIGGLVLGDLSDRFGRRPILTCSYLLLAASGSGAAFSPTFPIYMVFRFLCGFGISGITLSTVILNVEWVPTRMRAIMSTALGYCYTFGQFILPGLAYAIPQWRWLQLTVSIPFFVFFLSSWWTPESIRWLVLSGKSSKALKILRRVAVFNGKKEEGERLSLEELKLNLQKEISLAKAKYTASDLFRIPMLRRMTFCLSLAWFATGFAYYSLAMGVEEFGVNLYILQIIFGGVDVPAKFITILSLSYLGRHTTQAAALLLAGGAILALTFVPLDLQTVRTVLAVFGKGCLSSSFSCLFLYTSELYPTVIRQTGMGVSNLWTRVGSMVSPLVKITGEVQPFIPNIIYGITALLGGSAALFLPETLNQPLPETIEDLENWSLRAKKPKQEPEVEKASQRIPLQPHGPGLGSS
The test is described as follows: OAT3 transporter-mediated cellular uptake (substrate test). As to conditions: uptake 5 min, 37° C. Here is the method: as §1, §2, §3

With `CC(=O)N[C@@H](CC(C)C)C(=O)O` [N-acetyl-L-leucine], the Ki – broadly, the dissociation constant of the complex between target and ligand, obtained from inhibition or displacement – in test [1] (assuming competitive inhibition, read-out: affinity (Ki) for MCT1, Cheng-Prusoff equation) is 4.3 mM. Further, in test [1] (probe substrate 2-thiophene glyoxylate 500 μM), the IC50 (in general, the point on the concentration scale where inhibition reaches its midpoint) was 15 mM. In addition, the “substrate of OAT1 (uptake)” value at OAT1 (SLC22A6) is on record as “substrate”. The “substrate of OAT3 (uptake)” value at OAT3 (SLC22A8) is recorded as “substrate”.

For the origin of these results see patent US20240208895A1, “BRANCHED-CHAIN AMINO ACID DERIVATIVES TO TREAT DISEASE” (INTRABIO LTD., priority 2021, published 2024).
